Source: patent publication US8486962B2, “Antifungal agents” (F2G Ltd., priority 2005, dated 2013)
In brackets after ≈: the same amount, converted by molar mass. Like-named read-outs stand apart in the source and are kept apart here.

How the values were obtained:
A Terreus 49 = assay: MIC, YAG medium, A Terreus 49; type: cell-based, Aspergillus terreus; conditions: Aspergillus terreus; YAG medium; read-out: MIC A Terreus 49
In short: (§1)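 Yeast: RPMI + 2% glucose + 0.135M MOPS pH7.0, 1-2×10^3 cfu/ml, 35° C 24-48 h, OD485, MIC at >80% inhib. Aspergillus: YAG (1% glucose, 1% NH4Cl, 0.5% yeast extract), spores 1-2×10^4 cfu/ml, 35° C 24 h, MIC at >70% inhib. Range 50-0.05 mg/L.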

Aspergillus niger = assay: MIC, YAG medium, Aspergillus niger; type: cell-based; conditions: Aspergillus niger, YAG medium
In short: as §1

Candida albicans = assay: MIC, RPMI medium, Candida albicans; type: cell-based; conditions: read-out: MIC C. albicans
Description: (§2) Measurement of Minimum Inhibitory Concentrations (MICs)
(§3) Between 1 and 5 mgs of compound were accurately weighed out into a sterile Eppendorf tube. The compound was dissolved in DMSO to give a solution containing 5 mg/ml. Tubes were stored at −20° C. until required.
(§4) On the day of testing thawed solutions were vortex mixed to ensure homogeneity. 30 μl of solution was removed and added to 570 μl of sterile water in a separate sterile Eppendorf. The thoroughly mixed solution was used to prepare a series of doubling dilutions in water, in a deep well plate. Eleven replicate plates were prepared using a Minitrak by aspirating 20 μl from each well into eleven clear polystyrene 96 well plates.
(§5) Spores of Aspergillus spp (Aspergillus fumigatus, Aspergillus terreus, Aspergillus niger and Aspergillus flavus) were harvested from cultures grown on Sabarauds agar for 5 days, and resuspended in PBS/Tween 80 to approx 1×10^7 cfu/ml Other filamentous fungi (Fusarium solani, Scedosporium spp., Trichophyton spp., Absidia corymbifera), were grown on Sabarauds agar for 2-10 days and spores/hyphae resuspended in PBS/Tween to give approx 1×10^7 cfU/ml. Candida species (Candida albicans, Candida glabrata, Candida krusei, Candida parapsilosis and Candida tropicalis) were grown on Sabarauds agar, cells were harvested from the agar using a sterile loop and resuspended in PBS/Tween 80 to approx 1×10^6 cfu/ml. Each organism suspension was diluted in RPMI medium, containing 2% glucose and 0.135M MOPS buffer (pH7.0) to 2×10^4 cfu/ml for Aspergillus spp and other filamentous fungi and 2×10^3 cfu/ml for yeast. 80 μl of an organism suspension was added to each well of the plate containing drug dilutions.
(§6) This produced MIC plates with a drug range 50-0.05 mg/L and organism inocula of 1-2×10^4 cfu/ml for Aspergillus spp and other filamentous fungi and 1-2×10^3 cfu/ml for yeasts. All plates were incubated for 24-48 hrs at 35° C. Growth was assessed by monitoring the optical density at 485 nm for each well. The MIC of a compound is the lowest drug concentration that inhibits growth of an organism by >80% compared with a drug free control. MICs are recorded as mg/L. Other growth media can be used for susceptibility testing, and the activity of the described compounds can also be assessed in a medium comprising, 1% glucose, 1% ammonium chloride and 0.5% yeast extract (YAG medium). To perform MIC tests in this medium, dilutions of compounds are prepared in microtitre plates as described above. Fungal strains to be tested are grown and harvested in an identical manner to that described above, each organism suspension is then diluted in YAG medium to 2×10^4 cfu/ml for Aspergillus spp and other filamentous fungi and 2×10^3 cfu/ml for yeast. 80 μl of an organism suspension was added to each well of the plate containing drug dilutions. This produced MIC plates with a drug range 50-0.05 mg/L and organism inocula of 1-2×10^4 cfu/ml for Aspergillus spp and other filamentous fungi and 1-2×10^3 cfu/ml for yeasts. All plates were incubated for 24 hrs at 35° C. Growth was assessed by monitoring the optical density at 485 nm for each well. The MIC of a compound is the lowest drug concentration that inhibits growth of an organism by >70% compared with a drug free control. MICs are recorded as mg/L. In cases where the MIC of an organism is […]0.05 mg/L the MIC is repeated using a concentration range of 0.5-0.0005 mg/L. MIC tests in YAG medium have more clear-cut endpoints and have slightly lower MICS than those performed in RPMI medium.
(§7) The following organisms were tested: Aspergillus fumigatus AF293 and Aspergillus fumigatus AF210, Aspergillus niger, Aspergillus terreus, Aspergillus favus, Candida albicans, Candida krusei, Candida tropicalis, Candida glabrata, Candida parapsilosis, Trichophyton rubrum, Trichophyton mentagrophytes, Scedosporium prolificans, Scedosporium apiospermum, Absidia corymbifera, Fusarium solani.

Aspergillus flavus = assay: MIC, YAG medium, Aspergillus flavus; type: cell-based; conditions: Aspergillus flavus, YAG medium
In short: as §1

[1] = system: Aspergillus fumigatus AF293; assay: MIC, YAG medium, Aspergillus fumigatus AF293; type: cell-based; conditions: Aspergillus fumigatus, AF293; YAG medium; read-out: MIC A Fum. 293
In short: as §1

Candida tropicalis = assay: MIC, RPMI medium, Candida tropicalis; type: cell-based; conditions: read-out: MIC C. tropicalis
Description: as §2, §3, §4, §5, §6, §7

Candida glabrata = assay: MIC, RPMI medium, Candida glabrata; type: cell-based; conditions: Nakaseomyces glabratus, read-out: MIC C. glabrata
Description: as §2, §3, §4, §5, §6, §7

Candida krusei = assay: MIC, RPMI medium, Candida krusei; type: cell-based; conditions: Pichia kudriavzevii, read-out: MIC C. krusei
Description: as §2, §3, §4, §5, §6, §7

Aspergillus terreus = assay: MIC, YAG medium, Aspergillus terreus; type: cell-based; conditions: Aspergillus terreus, YAG medium
In short: as §1

[2] = system: Aspergillus fumigatus AF210; assay: MIC, YAG medium, Aspergillus fumigatus AF210; type: cell-based; conditions: Aspergillus fumigatus, AF210; YAG medium; read-out: MIC A Fum. 210
In short: as §1

Candida parapsilosis = assay: MIC, RPMI medium, Candida parapsilosis; type: cell-based; conditions: Lodderomyces parapsilosis, read-out: MIC C. parapsilosis
Description: as §2, §3, §4, §5, §6, §7

SMILES	MIC (A Terreus 49) [µg/mL]	MIC (Aspergillus niger; read-out: MIC A Niger 1) [µg/mL]	MIC (Candida albicans) [µg/mL]	MIC (Aspergillus flavus; read-out: MIC A Flavus 01) [µg/mL]	MIC [1] [µg/mL]	MIC (Candida tropicalis) [µg/mL]	MIC (Candida glabrata) [µg/mL]	MIC (Candida krusei) [µg/mL]	MIC (Aspergillus terreus; read-out: MIC A Terreus 4) [µg/mL]	MIC [2] [µg/mL]	MIC (Candida parapsilosis) [µg/mL]	MIC (Aspergillus niger; read-out: MIC A Niger) [µg/mL]	MIC (Aspergillus flavus; read-out: MIC A Flavus) [µg/mL]	MIC (Aspergillus terreus; read-out: MIC A Terreus) [µg/mL]
O=C(Nc1ccc(Nc2ccccn2)cc1)C(=O)c1c(-c2ccccc2)cc2ccccn12 [Example 270, 2-Oxo-2-(2-phenyl-indolizin-3-yl)-N-[4-(pyridin-2-ylamino)-phenyl]-acetamide]	0.12 (≈ 0.277 µM)	0.05 (≈ 0.116 µM)	6.25 (≈ 14.5 µM)	0.05 (≈ 0.116 µM)	0.05 (≈ 0.116 µM)	25 (≈ 57.8 µM)	50 (≈ 116 µM)	50 (≈ 116 µM)	0.05 (≈ 0.116 µM)	0.015 (≈ 0.0347 µM)	50 (≈ 116 µM)			
COCCNC(=O)C(=O)c1c(-c2cccnc2)cc2ccccn12 [Example 185, N-(2-Methoxy-ethyl)-2-oxo-2-(2-pyridin-3-yl-indolizin-3-yl)-acetamide]			50 (≈ 155 µM)			12.5 (≈ 38.7 µM)	> 50	> 50			50 (≈ 155 µM)			
COC(=O)C1CCCN1c1ccc(NC(=O)C(=O)c2c(-c3ccccc3)cc3ccccn23)cc1 (stereo not drawn) [Example 275, 1-{4-[2-Oxo-2-(2-phenyl-indolizin-3-yl)-acetylamino]-phenyl}-pyrrolidine-2-carboxylic acid methyl ester]	0.015 (≈ 0.0321 µM)	0.4 (≈ 0.856 µM)	25 (≈ 53.5 µM)	0.03 (≈ 0.0642 µM)	0.05 (≈ 0.107 µM)	> 50	> 50	> 50	0.03 (≈ 0.0642 µM)	0.03 (≈ 0.0642 µM)	> 50			
O=C(Nc1ccc(-c2nnn[nH]2)cc1)C(=O)c1c(-c2ccccc2)cc2ccccn12 [Example 271, 2-Oxo-2-(2-phenyl-indolizin-3-yl)-N-[4-(1H-tetrazol-5-yl)-phenyl]-acetamide]	25 (≈ 61.2 µM)	50 (≈ 122 µM)	3.1 (≈ 7.59 µM)	50 (≈ 122 µM)	50 (≈ 122 µM)	25 (≈ 61.2 µM)	50 (≈ 122 µM)	50 (≈ 122 µM)	25 (≈ 61.2 µM)	50 (≈ 122 µM)	50 (≈ 122 µM)			
O=C(Nc1ccc(C(F)(F)F)cc1)C(=O)c1c(-c2cccnc2)cc2ccccn12 [Example 212, 2-Oxo-2-(2-pyridin-3-yl-indolizin-3-yl)-N-(4-trifluoromethyl-phenyl)-acetamide]		0.4 (≈ 0.977 µM)	> 50	0.05 (≈ 0.122 µM)	0.8 (≈ 1.95 µM)	> 50	25 (≈ 61.1 µM)	> 50	0.1 (≈ 0.244 µM)	0.4 (≈ 0.977 µM)	> 50			
O=C(Nc1cccc(C(F)(F)F)c1)C(=O)c1c(-c2ccccc2)cc2ccccn12 [Example 306, 2-Oxo-2-(2-phenyl-indolizin-3-yl)-N-(3-trifluoromethyl-phenyl)-acetamide]	0.002 (≈ 0.0049 µM)				0.12 (≈ 0.294 µM)					0.062 (≈ 0.152 µM)		0.015 (≈ 0.0367 µM)	0.008 (≈ 0.0196 µM)	0.004 (≈ 0.00979 µM)
Cc1ncccc1-c1cc2ccccn2c1C(=O)C(=O)Nc1ccc(OCC(F)(F)C(F)F)cc1 [Example 283, 2-[2-(2-Methyl-pyridin-3-yl)-indolizin-3-yl]-2-oxo-N-[4-(2,2,3,3-tetrafluoro-propoxy)-phenyl]-acetamide]	0.05 (≈ 0.103 µM)	0.05 (≈ 0.103 µM)		0.015 (≈ 0.0309 µM)	0.2 (≈ 0.412 µM)				0.1 (≈ 0.206 µM)	0.2 (≈ 0.412 µM)				
O=C(Nc1ccc(N2CCSCC2)cc1)C(=O)c1c(-c2ccccc2)cc2ccccn12 [Example 258, 2-Oxo-2-(2-phenyl-indolizin-3-yl)-N-(4-thiomorpholin-4-yl-phenyl)-acetamide]	0.008 (≈ 0.0181 µM)	0.03 (≈ 0.0679 µM)		0.015 (≈ 0.034 µM)	0.03 (≈ 0.0679 µM)				0.008 (≈ 0.0181 µM)	0.015 (≈ 0.034 µM)				
CN(Cc1ccccc1)C(=O)c1cccc(NC(=O)C(=O)c2c(-c3ccccc3)cc3ccccn23)c1 [Example 263, N-Benzyl-N-methyl-3-[2-oxo-2-(2-phenyl-indolizin-3-yl)-acetylamino]-benzamide]	0.1 (≈ 0.205 µM)	0.8 (≈ 1.64 µM)		0.05 (≈ 0.103 µM)	0.4 (≈ 0.82 µM)				0.2 (≈ 0.41 µM)	0.4 (≈ 0.82 µM)				
COc1ccc(NC(=O)C(=O)c2c(-c3ccc(F)cc3)cc3ccccn23)c(OC)c1 [Example 149, N-(2,4-Dimethoxy-phenyl)-2-[2-(4-fluoro-phenyl)-indolizin-3-yl]-2-oxo-acetamide]	0.031 (≈ 0.0741 µM)	0.031 (≈ 0.0741 µM)		0.031 (≈ 0.0741 µM)	0.5 (≈ 1.19 µM)				0.06 (≈ 0.143 µM)	1.6 (≈ 3.82 µM)				
N#Cc1ccc(NC(=O)C(=O)c2c(-c3ccccc3)cc3ccccn23)cc1 [Example 150, N-(4-Cyano-phenyl)-2-oxo-2-(2-phenyl-indolizin-3-yl)-acetamide]	0.12 (≈ 0.328 µM)	0.25 (≈ 0.684 µM)		0.125 (≈ 0.342 µM)	1.6 (≈ 4.38 µM)				0.5 (≈ 1.37 µM)	1.6 (≈ 4.38 µM)				
Cc1ccccc1NC(=O)C(=O)c1c(-c2ccccc2)cc2ccccn12 [Example 202, 2-Oxo-2-(2-phenyl-indolizin-3-yl)-N-o-tolyl-acetamide]	0.015 (≈ 0.0423 µM)	0.031 (≈ 0.0875 µM)		0.062 (≈ 0.175 µM)	0.5 (≈ 1.41 µM)				0.008 (≈ 0.0226 µM)	0.25 (≈ 0.705 µM)				
